Measured values reported in publication PMC10892288, “Early Stage Preclinical Formulation Strategies to Alter the Pharmacokinetic Profile of Two Small Molecule Therapeutics” (Pharmaceuticals, 2024).

Tests used:
[1] = Mouse IV infusion of G7883 by iPRECIO pump; format: in vivo, female C57BL-6 mice
Source text: This is often a concern for molecules in early drug discovery stages. Various formulation and delivery strategies have been devised to modify the systemic PK profiles of drug molecules, encompassing nanoparticles, microparticles, lipid and polymer conjugation, implanted infusion pump device technologies, and subcutaneous depots. Here, we examined two strategies aimed at maintaining the drug concentration at a designed target concentration for the maximum duration potentially needed for proof of concept studies. The initial approach involved using an implantable device, the iPRECIO pump that allows for a controlled and sustained infusion, as opposed to a typical bolus IV injection. The infusion pump strategies can be a promising tool to achieve the desired delivery profile of a compound, given the solubility requirements based on the intended target release and PK profile. […]
All plasma and cell media concentrations of G7883 and G6893 were determined using liquid chromatography–tandem mass spectrometry after protein precipitation with acetonitrile and injection of the supernatant onto the column (Waters ACQUITY UPLC BEH C18 1.7 μm, 2.1 × 50 mm for G7883 and G6893). […] The lower limit of quantitation of the assay was 5.1 ng/mL, and the dilution quality control concentration was set at 10 ng/mL with acceptance criteria for accuracy and precision of 25%.

[2] = Mouse PK of G7883, SC in sunflower oil; format: in vivo
Description: was screened in different oil vehicles including corn, coconut, paraffin, soybean, and sunflower oil. […] For subcutaneous administrations, […] was formulated in sunflower oil as a suspension and dosed at 250 mg/kg with a dosing volume of 5 mL/kg. Food and water were available ad libitum to animals. Blood samples were collected post-dose into tubes containing K2EDTA as an anticoagulant. Samples were taken from three different animals at each time point. After the blood was mixed with K2EDTA, the samples were stored at -80 °C until analysis. All plasma and cell media concentrations of […] and […] were determined using liquid chromatography-tandem mass spectrometry after protein precipitation with acetonitrile and injection of the supernatant onto the column (Waters ACQUITY UPLC BEH C18 1.7 μm, 2.1 × 50 mm for […] and […]). The aqueous mobile phase was 0.1% formic acid, 2 mM ammonium formate in water/acetonitrile (v:v, 95:5), and the organic mobile phase was 0.1% formic acid, 2 mM ammonium formate in acetonitrile/water (v:v, 95:5). An AB Sciex API 4000 Triple Quad instrument was used for detecting […] and […] (Figure S2). The electrospray ionization source in both columns was operated in the positive ion and multiple reaction monitoring (MRM) detection modes. The MRM transitions for […] and […] were m/z 462.2 (Q1) and 253.10 (Q3) and m/z 454.2 (Q1) and 325.9 (Q3), respectively. The dynamic range of both assays was 0.50-50.0 ng/mL, and the total run time was 1.6 min. The lower limit of quantitation of the assay was […], and the dilution quality control concentration was set at 10 ng/mL with acceptance criteria for accuracy and precision of 25%. All plasma and cell media concentrations of […] were determined using liquid chromatography-tandem mass spectrometry after protein precipitation with acetonitrile and injection of the supernatant onto the column (Phenomenex Kinetex XB-C18, 30 × 2.1 mm, 2.6 μm). The aqueous mobile phase was 10 mM of ammonium formate in water, and the organic mobile phase was 0.1% formic acid in acetonitrile. An AB Sciex API 5500 Triple Quad instrument was used for detecting […]. The electrospray ionization source in both columns was operated in the positive ion and MRM detection modes. The MRM transitions for […] were m/z 462.2 (Q1) and 253.10 (Q3), respectively. The dynamic range of the assay was 0.50-50.0 ng/mL, and the total run time was 2 min. The lower limit of quantitation of the assay was […], and the dilution quality control concentration was set at 10 ng/mL with acceptance criteria for accuracy and precision of 25%.

[3] = SC 250 mpk sunflower oil compared with PO 250 mpk
[4] = plasma, 250 mg/kg, SC 250 mpk, sunflower oil suspension, mean ± SD

In the case of `Cc1nccnc1-c1nn2c(=O)cc(-c3ccc(C4CCCCC4)cc3)[nH]c2c1C(=O)N1CC(CF)C1` [G7883, 5-(4-cyclohexylphenyl)-3-[3-(fluoromethyl)azetidine-1-carbonyl]-2-(3-methylpyrazin-2-yl)-4H-pyrazolo[1,5-a]pyrimidin-7-one], the “plasma concentration relative to target IC50” value ([1]; 3.3 mg/mL in 20% DMSO, 80% PEG400, 1.54 mg/h.kg, over 176 h, mouse) is reported as “plasma concentrations remained below the target IC50”, the “body weight over time” value ([1]; 20% DMSO, 80% PEG400, mouse) is reported as “prevention of body weight loss over time” and the “reduction of Cmax, SC versus IP” value ([2]; SC 250 mpk compared with IP 150 mpk) is reported as “approximately 4 fold”. For the same compound, the “half-life extension, SC versus PO” value [2, 3] was 2.5 fold, the “increase of AUC, SC oil formulation versus oral” value [2, 3] was “more than 5 fold” and the F ([2]; SC 250 mpk, sunflower oil suspension, mean ± SD, 250 mg/kg) was 46.4 ± 13.2%. For the same compound, the AUC(0-t) [2, 4] was 137 ± 51.1 µM·h, the Cmax [2, 4] was 16.7 ± 12 µM and the Tmax [2, 4] was 2.67 ± 1.15 h. The half-life [2, 4] was 6.94 ± 2.93 h and the bioavailability ([2]; plasma, sc, 250 mg/kg, SC 250 mpk, sunflower oil suspension, mean ± SD) was 46%.
